Data taken from patent US7618983B2, “Bicyclic triazole α4 integrin inhibitors” (Janssen Pharmaceutica, N.V., priority 2004, dated 2009).
Read-outs that look alike come from different tables or passages of the source.

How the values were obtained:
[1] = tested on: heterotopic heart allograft; conditions: hyperlipidemic rabbit; cited from earlier work
[2] = tested on: oxazolone-induced contact hypersensitivity; conditions: 6 mg/kg, sc; compared with α4 antibody PS/2; cited from earlier work
α4β1 [3] = target: T1, α4β1 (Homo sapiens, UniProt P05556+P13612); conditions: cited from earlier work
α4β1 [4] = target: T1, α4β1; assay: Ramos Cell Adhesion Assay (α4β1 Mediated Adhesion/VCAM-1); assay type: cell-based; parameters: Ramos Cell Adhesion Assay (α4β1 Mediated Adhesion/VCAM-1); endogenous in cells; host or cells: Ramos cells
Method: Ramos Cell Adhesion Assay (α4β1 Mediated Adhesion/VCAM-1)
Immulon 96 well plates (Dynex) were coated with 100 μL recombinant hVCAM-1 at 4.0 μg/mL in 0.05 M NaCO3 buffer pH 9.0 overnight at 4° C. (R&D Systems). Plates were washed 3 times in PBS with 1% BSA and blocked for 1 h @ room temperature in this buffer. PBS was removed and compounds to be tested (50 μL) were added at 2× concentration. Ramos cells, (50 μL at 2×10^6/mL) labeled with 5 μM Calcein AM (Molecular Probes) for 1 h at 37° C., were added to each well and allowed to adhere for 1 h at room temperature. Plates were washed 3× in PBS+1% BSA and cells were lysed for 15 minutes in 100 μL of 1 M Tris pH 8.0 with 1% SDS. The plate was read at 485 nm excitation and 530 nm emission.

human α4β7 integrin = target: T2, human α4β7 integrin (Homo sapiens, UniProt P13612+P26010); assay: α4β7-K562 Cell Adhesion Assay (α4β7 Mediated Adhesion/MAdCAM-1); assay type: cell-based
T2 construct: expressed in transfected cells; host or cells: K562 cells, stably transfected
T2 sequence (P13612 34-1032): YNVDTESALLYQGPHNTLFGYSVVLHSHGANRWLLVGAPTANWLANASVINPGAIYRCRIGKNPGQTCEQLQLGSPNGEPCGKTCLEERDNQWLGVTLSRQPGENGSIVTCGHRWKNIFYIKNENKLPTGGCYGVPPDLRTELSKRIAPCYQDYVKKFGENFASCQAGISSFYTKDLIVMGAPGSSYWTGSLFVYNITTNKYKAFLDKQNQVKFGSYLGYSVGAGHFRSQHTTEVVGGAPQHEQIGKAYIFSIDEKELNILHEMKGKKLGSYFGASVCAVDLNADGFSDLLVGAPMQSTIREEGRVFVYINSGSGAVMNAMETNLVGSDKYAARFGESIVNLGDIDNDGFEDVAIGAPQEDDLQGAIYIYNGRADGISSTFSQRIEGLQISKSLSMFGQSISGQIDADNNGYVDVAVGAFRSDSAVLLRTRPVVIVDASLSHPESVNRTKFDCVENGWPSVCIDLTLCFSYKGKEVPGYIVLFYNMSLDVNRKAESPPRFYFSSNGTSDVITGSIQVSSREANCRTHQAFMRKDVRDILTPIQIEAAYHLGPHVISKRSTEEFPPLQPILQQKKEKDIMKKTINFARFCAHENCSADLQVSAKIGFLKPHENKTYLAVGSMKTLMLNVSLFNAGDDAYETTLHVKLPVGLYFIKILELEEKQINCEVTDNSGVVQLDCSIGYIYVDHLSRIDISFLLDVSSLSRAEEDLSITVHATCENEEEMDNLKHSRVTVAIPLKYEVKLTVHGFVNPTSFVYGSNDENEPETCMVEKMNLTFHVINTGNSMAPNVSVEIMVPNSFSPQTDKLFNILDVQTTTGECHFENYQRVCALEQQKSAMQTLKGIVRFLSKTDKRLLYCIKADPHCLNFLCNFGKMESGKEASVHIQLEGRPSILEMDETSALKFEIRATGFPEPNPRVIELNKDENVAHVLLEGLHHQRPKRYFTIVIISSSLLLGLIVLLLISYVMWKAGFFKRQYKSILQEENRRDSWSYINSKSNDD
T2 sequence (P26010 20-798): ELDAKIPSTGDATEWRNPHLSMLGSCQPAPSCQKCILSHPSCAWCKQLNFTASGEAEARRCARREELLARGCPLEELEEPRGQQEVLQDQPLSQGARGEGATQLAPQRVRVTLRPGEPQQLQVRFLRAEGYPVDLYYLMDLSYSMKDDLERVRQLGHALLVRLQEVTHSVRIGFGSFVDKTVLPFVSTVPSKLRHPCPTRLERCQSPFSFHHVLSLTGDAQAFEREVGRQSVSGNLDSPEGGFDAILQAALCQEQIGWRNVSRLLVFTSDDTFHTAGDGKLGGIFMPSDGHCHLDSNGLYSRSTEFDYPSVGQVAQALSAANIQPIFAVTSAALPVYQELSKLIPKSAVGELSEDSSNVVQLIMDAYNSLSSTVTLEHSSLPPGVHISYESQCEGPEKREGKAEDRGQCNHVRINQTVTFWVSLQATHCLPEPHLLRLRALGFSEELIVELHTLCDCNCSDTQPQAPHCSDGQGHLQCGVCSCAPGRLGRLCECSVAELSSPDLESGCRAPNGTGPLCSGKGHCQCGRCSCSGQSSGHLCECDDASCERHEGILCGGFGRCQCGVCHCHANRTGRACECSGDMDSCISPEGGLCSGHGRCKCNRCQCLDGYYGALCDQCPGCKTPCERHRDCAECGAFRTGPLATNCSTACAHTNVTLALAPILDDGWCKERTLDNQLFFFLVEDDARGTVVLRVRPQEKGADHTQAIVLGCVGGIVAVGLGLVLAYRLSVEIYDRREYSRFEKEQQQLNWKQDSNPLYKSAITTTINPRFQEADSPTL
Method: α4β7-K562 Cell Adhesion Assay (α4β7 Mediated Adhesion/MAdCAM-1)
M2 anti-FLAG antibody coated 96-well plates (Sigma) were coated for 1 hour at 4° C. with 2-8 μl/well recombinant FLAG-hMAdCAM-1 contained in 100 μL of Dulbecco's PBS, pH 7.4, with 1% BSA and 1 mM Mn^2+ (PBS-BSA-Mn). Plates were washed once with PBS-BSA-Mn. Buffer was removed and compounds to be tested (50 μL) were added at 2 times concentration. Stably transfected K562 cells expressing human α4β7 integrin, (50 μL at 2×10^6/mL) that had been labeled with 100 μg/mL carboxymethyl fluorescein diacetate succinimidyl ester (CFDA-SE; Molecular Probes) for 15 min at 37° C. were added to each well and allowed to adhere for 1 h at room temperature. Plates were washed 4 times in PBS-BSA-Mn and then cells were lysed for 2 minutes by addition of 100 μL of PBS without Ca, Mg supplemented with 0.1 M NaOH. The plate was read on a 96-well fluorescent plate reader at 485 nm excitation and 530 nm emission.

[5] = Ramos cells adhering to recombinant hVCAM-1, read-out: α4β1 IC50
[6] = K562 cells expressing human α4β7 adhering to FLAG-hMAdCAM-1, 1 mM Mn2+, read-out: α4β7, Madcam IC50

T1 sequence (P05556 21-798, one chain of several): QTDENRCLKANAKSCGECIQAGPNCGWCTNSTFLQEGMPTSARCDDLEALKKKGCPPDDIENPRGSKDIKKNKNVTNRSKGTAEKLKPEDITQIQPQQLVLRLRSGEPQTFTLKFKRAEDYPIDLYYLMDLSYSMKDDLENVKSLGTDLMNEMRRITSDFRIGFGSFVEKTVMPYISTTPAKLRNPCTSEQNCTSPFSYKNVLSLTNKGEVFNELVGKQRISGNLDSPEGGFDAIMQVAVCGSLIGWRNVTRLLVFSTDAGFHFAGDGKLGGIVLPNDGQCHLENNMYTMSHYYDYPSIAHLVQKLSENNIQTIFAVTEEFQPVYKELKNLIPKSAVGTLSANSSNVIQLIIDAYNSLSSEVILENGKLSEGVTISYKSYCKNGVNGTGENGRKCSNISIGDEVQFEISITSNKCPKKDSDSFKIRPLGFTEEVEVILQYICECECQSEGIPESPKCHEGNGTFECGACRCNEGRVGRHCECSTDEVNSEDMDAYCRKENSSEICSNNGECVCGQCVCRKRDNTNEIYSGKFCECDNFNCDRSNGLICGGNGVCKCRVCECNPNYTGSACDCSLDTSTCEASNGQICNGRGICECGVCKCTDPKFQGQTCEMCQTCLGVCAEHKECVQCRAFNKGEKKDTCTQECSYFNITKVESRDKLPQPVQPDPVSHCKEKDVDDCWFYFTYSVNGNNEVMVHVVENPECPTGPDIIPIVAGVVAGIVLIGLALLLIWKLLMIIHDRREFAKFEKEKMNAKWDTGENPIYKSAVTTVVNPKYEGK

Molecule	IC50 (α4β1 [4]; [5])	IC50 (human α4β7 integrin; [6])	other results
Phenylacetyl-Leu-Asp-Phe-D-Pro-NH2			efficacy in heart allograft model [1]: effective; efficacy in contact hypersensitivity [2]: efficacy similar to the α4 antibody PS/2; IC50 (α4β1 [3]): 2000 nM
O=C(Nc1ccc(C[C@H](NC(=O)[C@@H]2CCc3nnc(Cc4ccccc4)n32)C(=O)O)cc1)c1c(Cl)cncc1Cl [Cpd 9, 2-(S)-[(3-Benzyl-6,7-dihydro-5H-pyrrolo[2,1-c][1,2,4]triazole-5-(S)-carbonyl)-amino]-3-{4-[(3,5-dichloro-pyridine-4-carbonyl)-amino]-phenyl}-propionic acid]	80 nM	20 nM	
O=C(Nc1ccc(C[C@H](NC(=O)[C@@H]2CCc3n[nH]c(=O)n32)C(=O)O)cc1)c1c(Cl)cncc1Cl [Cpd 20, 3-{4-[(3,5-Dichloro-pyridine-4-carbonyl)-amino]-phenyl}-2-(S)-[(3-oxo-2,5,6,7-tetrahydro-3H-pyrrolo[2,1-c][1,2,4]triazole-5-(S)-carbonyl)-amino]-propionic acid]	450 nM	50 nM	
CN(C)C(=O)Oc1ccc(C[C@H](NC(=O)C2CCCc3nnc(Cc4ccccc4)n32)C(=O)O)cc1 (stereo partly drawn) [Cpd 2, 2-(S)-[(3-Benzyl-5,6,7,8-tetrahydro-[1,2,4]triazolo[4,3-a]pyridine-5-carbonyl)-amino]-3-(4-dimethylcarbamoyloxy-phenyl)-propionic acid]			IC50 (α4β1 [4]): 5090 nM; IC50 (human α4β7 integrin): 1660 nM
CN(C)C(=O)Oc1ccc(C[C@H](NC(=O)[C@@H]2CCc3nnc(Cc4ccccc4)n32)C(=O)O)cc1 [Cpd 3, 2-(S)-[(3-Benzyl-6,7-dihydro-5H -pyrrolo[2,1-c][1,2,4]triazole-5-(S)-carbonyl)-amino]-3-(4-dimethylcarbamoyloxy-phenyl)-propionic acid]			IC50 (α4β1 [4]): 4150 nM; IC50 (human α4β7 integrin): > 5000 nM
COc1cccc(OC)c1-c1ccc(C[C@H](NC(=O)[C@@H]2CCc3nnc(Cc4ccsc4)n32)C(=O)O)cc1 [Cpd 15, 3-(2′,6′-Dimethoxy-biphenyl-4-yl)-2-(S)-[(3-thiophen-3-ylmethyl-6,7-dihydro-5H-pyrrolo[2,1-c][1,2,4]triazole-5-(S)-carbonyl)-amino]-propionic acid]	710 nM	90 nM	
O=C(Nc1ccc(C[C@H](NC(=O)[C@@H]2CCc3n[nH]c(=O)n32)C(=O)O)cc1)c1c(Cl)cccc1Cl [Cpd 18, 3-[4-(2,6-Dichloro-benzoylamino)-phenyl]-2-(S)-[(3-oxo-2,5,6,7-tetrahydro-3H-pyrrolo[2,1-c][1,2,4]triazole-5-(S)-carbonyl)-amino]-propionic acid]	850 nM	90 nM	
O=C(Nc1ccc(C[C@H](NC(=O)[C@@H]2CCc3nn(Cc4ccccc4)c(=O)n32)C(=O)O)cc1)c1c(Cl)cccc1Cl [Cpd 19, 2-(S)-[(2-Benzyl-3-oxo-2,5,6,7-tetrahydro-3H-pyrrolo[2,1-c][1,2,4]triazole-5-(S)-carbonyl)-amino]-3-[4-(2,6-dichloro-benzoylamino)-phenyl]-propionic acid]	> 5000 nM	200 nM	
